Broadly, the EC50 is the concentration giving half of the maximal effect. Broadly, the CC50 is the concentration that lowers cell viability or growth by half.

The values that follow come from article PMC10893357 (Viruses, 2024).

Common to all, as to format: cell-based
The subject of data set [1] is SARS-CoV-2 Wuhan, lineage B.1.1 hCoV-19/Russia/Omsk202118_1707/2020. The experiment in a line: Antiviral CPE reduction assay in Vero E6 cells, Wuhan. Conditions: Severe acute respiratory syndrome coronavirus 2, Vero C1008, 96 h.
Data set [2] concerns SARS-CoV-2 Delta, lineage B.1.617.2 hCoV-19/Russia/PSK-2804/2021. The experiment in a line: Antiviral CPE reduction assay in Vero E6 cells, Delta. The following applies: Severe acute respiratory syndrome coronavirus 2, Vero C1008, 96 h.
Data set [3] has as its system SARS-CoV-2 Omicron, BA.1 hCoV-19/Russia/Moscow171619-031221/2021. The experiment in a line: Antiviral CPE reduction assay in Vero E6 cells, Omicron BA.1. The following applies: Severe acute respiratory syndrome coronavirus 2, Vero C1008, 96 h.
In data set [4] the test system is SARS-CoV-2 Omicron, BA 5.2 hCov-19/Russia/Moscow-49415/2022. The experiment in a line: Antiviral CPE reduction assay in Vero E6 cells, Omicron BA.5.2. The following applies: Severe acute respiratory syndrome coronavirus 2, Vero C1008, 96 h.
Data set [5] concerns SARS-CoV-2 Omicron, XBB 1.5 hCoV-19/Russia/SAK-SRC-8527/2023. The experiment in a line: Antiviral CPE reduction assay in Vero E6 cells, Omicron XBB.1.5. Conditions: Severe acute respiratory syndrome coronavirus 2, Vero C1008, 96 h.
Data set [6] deals with SARS-CoV-2 Omicron lineage BQ.1.1 hCoV-19/Russia/TOM-SRC-8663/2023. The experiment in a line: Antiviral CPE reduction assay in Vero E6 cells, Omicron BQ.1.1. Conditions: Severe acute respiratory syndrome coronavirus 2, Vero C1008, 96 h.
A short description of data set [7]: Cytotoxicity (MTT) in Vero E6 cells. The following applies: African green monkey.

With `CC(=O)C1=C(O)C=C2Oc3c(-c4csc(N/N=C/c5ccc(Br)s5)n4)c(O)c(C)c(O)c3[C@@]2(C)C1=O` [(+)-3e], the EC50 in data set [1] was 25.3 ± 2.2 µM; in data set [2], 41.5 ± 3.1 µM; in data set [3], 20.7 ± 1.6 µM; in data set [4] it was 20 ± 1.6 µM; in data set [5] it was 22.4 ± 2 µM; in data set [6] it was 32.2 ± 2.6 µM. Further, in data set [7], the CC50 at 4 days worked out at 350 ± 21.2 µM.
For `CCC(CC)COC(=O)[C@H](C)N[P@](=O)(OC[C@H]1O[C@@](C#N)(c2ccc3c(N)ncnn23)[C@H](O)[C@@H]1O)Oc1ccccc1` [Remdesivir, reference compound], the EC50 was found to be 3.8 ± 0.42 µM in data set [1]; 2.1 ± 0.16 µM in data set [2]; 2 ± 0.13 µM in data set [3]; 4.45 ± 1 µM in data set [4]; 2.65 ± 0.6 µM in data set [5]; 3.13 ± 0.9 µM in data set [6]. The molecule also displayed a CC50 at 4 days in data set [7] of 711 ± 21.2 µM.
